# Assay results reported in the NIST ThermoML archive (doi:10.1016/j.jct.2008.06.011).
# Several values for one entry are separate records, joined by “and”; a condition that tells them apart may be missing. Equal entries are not always repeated. Numbers after ± are expanded uncertainties.
# Settings: Crystal, Calculated from knudsen effusion weight loss
compound,measurement,setting,value
NNC(=O)c1ccco1 [2-furoic acid hydrazide],vapor or sublimation pressure,309.15 K,0.0001487 ± 7.5e-06 kPa and 0.0001459 ± 7.3e-06 kPa and 0.0001436 ± 7.2e-06 kPa
same,vapor or sublimation pressure,311.15 K,0.0001928 ± 9.7e-06 kPa and 0.0001919 ± 9.6e-06 kPa and 0.0001872 ± 9.4e-06 kPa
same,vapor or sublimation pressure,313.14 K,0.0002436 ± 1.2e-05 kPa and 0.0002335 ± 1.2e-05 kPa and 0.0002348 ± 1.2e-05 kPa
same,vapor or sublimation pressure,315.14 K,0.0003144 ± 1.6e-05 kPa and 0.0003082 ± 1.6e-05 kPa and 0.0003114 ± 1.6e-05 kPa
same,vapor or sublimation pressure,317.13 K,0.0003943 ± 2e-05 kPa and 0.0003803 ± 1.9e-05 kPa and 0.0003744 ± 1.9e-05 kPa
same,vapor or sublimation pressure,319.15 K,0.0005068 ± 2.5e-05 kPa and 0.0004916 ± 2.5e-05 kPa and 0.0004795 ± 2.4e-05 kPa
same,vapor or sublimation pressure,321.14 K,0.0006091 ± 3e-05 kPa and 0.0006111 ± 3.1e-05 kPa and 0.0005851 ± 2.9e-05 kPa
same,vapor or sublimation pressure,323.16 K,0.0007862 ± 3.9e-05 kPa and 0.0007814 ± 3.9e-05 kPa and 0.0007812 ± 3.9e-05 kPa
same,vapor or sublimation pressure,325.15 K,0.0009687 ± 4.8e-05 kPa and 0.0009579 ± 4.8e-05 kPa and 0.0009504 ± 4.8e-05 kPa
NNC(=O)c1cccs1 [2-thiophenecarboxylic acid hydrazide],vapor or sublimation pressure,339.13 K,0.000108 ± 5e-06 kPa and 0.000109 ± 5e-06 kPa
same,vapor or sublimation pressure,341.18 K,0.000134 ± 7e-06 kPa and 0.000135 ± 7e-06 kPa
same,vapor or sublimation pressure,343.2 K,0.000171 ± 9e-06 kPa and 0.000169 ± 8e-06 kPa and 0.000164 ± 8e-06 kPa
same,vapor or sublimation pressure,345.13 K,0.000218 ± 1.1e-05 kPa and 0.000213 ± 1.1e-05 kPa and 0.000219 ± 1.1e-05 kPa
same,vapor or sublimation pressure,347.18 K,0.000273 ± 1.4e-05 kPa and 0.000274 ± 1.4e-05 kPa and 0.000262 ± 1.3e-05 kPa
same,vapor or sublimation pressure,349.19 K,0.00033 ± 1.7e-05 kPa and 0.00034 ± 1.7e-05 kPa and 0.000323 ± 1.6e-05 kPa
same,vapor or sublimation pressure,351.13 K,0.000414 ± 2.1e-05 kPa and 0.000423 ± 2.1e-05 kPa and 0.000404 ± 2e-05 kPa
same,vapor or sublimation pressure,353.18 K,0.000519 ± 2.6e-05 kPa and 0.00052 ± 2.6e-05 kPa and 0.000497 ± 2.5e-05 kPa
same,vapor or sublimation pressure,355.19 K,0.000637 ± 3.2e-05 kPa and 0.000628 ± 3.1e-05 kPa and 0.000622 ± 3.1e-05 kPa
same,vapor or sublimation pressure,357.12 K,0.000786 ± 3.9e-05 kPa and 0.000787 ± 3.9e-05 kPa and 0.000763 ± 3.8e-05 kPa
same,vapor or sublimation pressure,359.15 K,0.000977 ± 4.9e-05 kPa and 0.000971 ± 4.9e-05 kPa and 0.000942 ± 4.7e-05 kPa
same,vapor or sublimation pressure,361.18 K,0.001194 ± 0.00012 kPa and 0.001173 ± 0.00012 kPa and 0.001154 ± 0.00012 kPa
